Laboratory results published in patent US9981916B2 (Genentech, Inc., priority 2013, dated 2018).

Molecular target: T1, RORc ligand binding domain (Homo sapiens, UniProt P51449)
T1 construct: host or cells: E. coli
T1 sequence (P51449 269-508 limits assumed): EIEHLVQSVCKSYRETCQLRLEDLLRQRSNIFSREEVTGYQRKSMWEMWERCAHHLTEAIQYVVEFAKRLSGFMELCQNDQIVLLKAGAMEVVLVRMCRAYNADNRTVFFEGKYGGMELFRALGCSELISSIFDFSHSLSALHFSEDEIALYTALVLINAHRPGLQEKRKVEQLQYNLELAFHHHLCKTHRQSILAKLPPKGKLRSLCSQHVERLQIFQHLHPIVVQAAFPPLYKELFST
Experiment: In vitro RORc ligand binding assay (25-[3H]hydroxycholesterol displacement, filter binding)
Conditions: 6 nM 25-[3H]hydroxycholesterol, 0.6 ug/mL RORc receptor, 3 h at 25° C.
How it was run: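 Compounds in 5% DMSO, either dose-response or screened at 1 and 10 uM, competed with 6 nM 25-[3H]hydroxycholesterol for 0.6 ug/mL RORc over 3 h at 25° C (HEPES pH 7.4, NaCl, MgCl2, DTT, BSA buffer). Bound tracer was filter-harvested and counted; nonspecific binding came from 1 uM 25-hydroxycholesterol.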

IC50 [nM]	Compound
171	CC1(C)[C@H]2CC[C@]1(N1CCNC1=O)c1nnc(-c3c(F)cccc3F)cc12 [Example 184, 1-((5R,8R)-3-(2,6-difluorophenyl)-9,9-dimethyl-5,6,7,8-tetrahydro-5,8-methanocinnolin-8-yl)imidazolidin-2-one]
45	COC[C@@]12CC[C@@H](c3cc(-c4c(F)cccc4F)nnc31)C2(C)C [Example 30, (5R,8R)-3-(2,6-difluorophenyl)-8-(methoxymethyl)-9,9-dimethyl-5,6,7,8-tetrahydro-5,8-methanocinnoline]
1130	CC1(C)[C@@H]2CC[C@@]1(C(=O)N1CCCC1CO)c1nnc(-c3c(F)cccc3F)cc12 (stereo in doubt) [Example 215, ((5S,8S)-3-(2,6-difluorophenyl)-9,9-dimethyl-5,6,7,8-tetrahydro-5,8-methanocinnolin-8-yl) ((R)-2-(hydroxymethyl)pyrrolidin-1-yl)methanone]
984	CC1(C)[C@H]2CC[C@]1(NS(C)(=O)=O)c1nnc(-c3c(F)cccc3F)cc12 [Example 282, N-((5R,8R)-3-(2,6-difluorophenyl)-9,9-dimethyl-5,6,7,8-tetrahydro-5,8-methanocinnolin-8-yl)methanesulfonamide]
233	CC1(C)[C@H]2CC[C@]1(CN(CCC#N)C(=O)CO)c1nnc(-c3c(F)cccc3F)cc12 [Example 316, N-(2-cyanoethyl)-N-(((5R,8S)-3-(2,6-difluorophenyl)-9,9-dimethyl-5,6,7,8-tetrahydro-5,8-methanocinnolin-8-yl)methyl)-2-hydroxyacetamide]
2720	CC(=O)N[C@H]1CCN(C(=O)[C@]23CC[C@H](c4cc(-c5c(F)cccc5F)nnc42)C3(C)C)C1 [Example 225, N-((S)-1-((5S,8S)-3-(2,6-difluorophenyl)-9,9-dimethyl-5,6,7,8-tetrahydro-5,8-methanocinnoline-8-carbonyl)pyrrolidin-3-yl)acetamide]
117	CCc1nnc([C@@]23CC[C@@H](c4cc(-c5c(F)cccc5F)nnc42)C3(C)C)s1 [Example 124, (5R,8R)-3-(2,6-difluorophenyl)-9,9-dimethyl-8-(5-ethyl-1,3,4-thiadiazol-2-yl)-5,6,7,8-tetrahydro-5,8-methanocinnoline]
27	Cc1cnc([C@@]23CC[C@@H](c4cc(-c5c(F)cccc5F)nnc42)C3(C)C)o1 [Example 112, (5R,8R)-3-(2,6-difluorophenyl)-9,9-dimethyl-8-(5-methyl-1,3-oxazol-2-yl)-5,6,7,8-tetrahydro-5,8-methanocinnoline]
345	CC1(C)[C@@H]2CC[C@@]1(C(=O)N1CC(C#N)C1)c1nnc(-c3c(F)cccc3F)cc12 [Example 259, 1-((5S,8S)-3-(2,6-difluorophenyl)-9,9-dimethyl-5,6,7,8-tetrahydro-5,8-methanocinnoline-8-carbonyl)azetidine-3-carbnitrite]
623	CC1(C)[C@H]2CC[C@]1(c1ccn(CCC#N)n1)c1nnc(-c3c(F)cccc3F)cc12 [Example 287]
1220	Cc1c(-c2ccccc2F)nnc2c1[C@H]1CC[C@]2(C)C1(C)C [Example 33, (5S,8R)-3-(2-fluorophenyl)-4,8,9,9-tetramethyl-5,6,7,8-tetrahydro-5,8-methanocinnoline]
10	CCN(C[C@@]12CC[C@@H](c3cc(-c4c(F)cccc4F)nnc31)C2(C)C)c1nnc(C(F)(F)F)o1 [Example 303, N-(((5R,8S)-3-(2,6-difluorophenyl)-9,9-dimethyl-5,6,7,8-tetrahydro-5,8-methanocinnolin-8-yl)methyl)-N-ethyl-5-(trifluoromethyl)-1,3,4-oxadiazol-2-amine]
5650	Cc1noc(NC(=O)[C@]23CC[C@H](c4cc(-c5c(F)cccc5F)nnc42)C3(C)C)n1 [Example 85, (5S,8S)-3-(2,6-difluorophenyl)-9,9-dimethyl-N-(3-methyl-1,2,4-oxadiazol-5-yl)-6,7-dihydro-5,8-methanocinnoline-8(5H)-carboxamide]
1200	CC(=O)O[C@@H]1C[C@H]2c3cc(-c4ccccc4F)nnc3[C@]1(C)C2(C)C [Example 20, (5R,7R,8S)-3-(2-fluorophenyl)-8,9,9-trimethyl-5,6,7,8-tetrahydro-5,8-methanocinnolin-7-yl acetate]
2100	CNC(=O)[C@]12CC[C@H](c3cc(-c4ccccc4F)nnc31)C2(C)C [Example 334, (5S,8S)-3-(2-fluorophenyl)-N,9,9-trimethyl-5,6,7,8-tetrahydro-5,8-methanocinnoline-8-carboxamide]
384	CONC(=O)[C@]12CC[C@H](c3cc(-c4c(F)cccc4F)nnc31)C2(C)C [Example 91, (5S,8S)-3-(2,6-difluorophenyl)-N-methoxy-9,9-dimethyl-6,7-dihydro-5,8-methanocinnoline-8(5H)-carboxamide]
46	CCN(C[C@@]12CC[C@@H](c3cc(-c4c(F)cccc4F)nnc31)C2(C)C)S(C)(=O)=O [Example 156, N-(((5R,8S)-3-(2,6-difluorophenyl)-9,9-dimethyl-5,6,7,8-tetrahydro-5,8-methanocinnolin-8-yl)methyl)-N-ethylmethanesulfonamide]
600	CC1(C)[C@@H]2CC[C@@]1(C(=O)N1CCC[C@@H]1CO)c1nnc(-c3c(F)cccc3F)cc12 [Example 204, ((5S,8S)-3-(2,6-difluorophenyl)-9,9-dimethyl-5,6,7,8-tetrahydro-5,8-methanocinnolin-8-yl) ((R)-2-(hydroxymethyl)pyrrolidin-1-yl)methanone]
8	CCN(C[C@@]12CC[C@@H](c3cc(-c4c(F)cccc4F)nnc31)C2(C)C)C(=O)CO [Example 162, N-(((5R,8S)-3-(2,6-difluorophenyl)-9,9-dimethyl-5,6,7,8-tetrahydro-5,8-methanocinnolin-8-yl)methyl)-N-ethyl-2-hydroxyacetamide]
1920	CC1(C)[C@H]2CC[C@]1(CNC1COC1)c1nnc(-c3c(F)cccc3F)cc12 [Example 317, N-(((5R,8S)-3-(2,6-difluorophenyl)-9,9-dimethyl-5,6,7,8-tetrahydro-5,8-methanocinnolin-8-yl)methyl)oxetan-3-amine]
2400	CC1(C)[C@H]2CC[C@]1(C(=O)NC1COC1)c1nnc(-c3c(F)cccc3F)cc12 [Example 187, (5R,8R)-3-(2,6-difluorophenyl)-9,9-dimethyl-N-(oxetan-3-yl)-5,6,7,8-tetrahydro-5,8-methanocinnoline-8-carboxamide]
2330	CC(C)(C)OC(=O)N[C@]12CC[C@H](c3cc(-c4c(F)cccc4F)nnc31)C2(C)C [Example 256, tert-butyl ((5S,8S)-3-(2,6-difluorophenyl)-9,9-dimethyl-5,6,7,8-tetrahydro-5,8-methanocinnolin-8-yl)carbamate]
1110	C[C@H]1COC(=O)N1C[C@@]12CC[C@@H](c3cc(-c4c(F)cccc4F)nnc31)C2(C)C [Example 295, (S)-3-(((5R,8S)-3-(2,6-difluorophenyl)-9,9-dimethyl-5,6,7,8-tetrahydro-5,8-methanocinnolin-8-yl)methyl)-4-methyloxazolidin-2-one]
756	CC1(C)[C@@H]2CC[C@@]1(Cc1noc(CO)n1)c1nnc(-c3ccccc3F)cc12 [Example 45, (3-{[(5S,8S)-3-(2-fluorophenyl)-9,9-dimethyl-6,7-dihydro-5,8-methanocinnolin-8(5H)-yl]methyl}-1,2,4-oxadiazol-5-yl)methanol]
109	CC1(C)[C@H]2CC[C@]1(c1nnc(C3CC3)o1)c1nnc(-c3c(F)cccc3F)cc12 [Example 123, (5R,8R)-3-(2,6-difluorophenyl)-9,9-dimethyl-8-(5-cyclopropyl-1,3,4-oxadiazol-2-yl)-5,6,7,8-tetrahydro-5,8-methanocinnoline]
339	COCCn1nccc1[C@@]12CC[C@@H](c3cc(-c4c(F)cccc4F)nnc31)C2(C)C [Example 267, (5R,8S)-3-(2,6-difluorophenyl)-8-(1-(2-methoxyethyl)-1H-pyrazol-5-yl)-9,9-dimethyl-5,6,7,8-tetrahydro-5,8-methanocinnoline]
461	CC1(C)[C@H]2CC[C@]1(C(=O)N1CC(O)C1)c1nnc(-c3c(F)cccc3F)cc12 [Example 199, ((5R,8R)-3-(2,6-difluorophenyl)-9,9-dimethyl-5,6,7,8-tetrahydro-5,8-methanocinnolin-8-yl)(3-hydroxyazetidin-1-yl)methanone]
238	Cc1noc(C[C@]23CC[C@H](c4cc(-c5ccccc5F)nnc42)C3(C)C)n1 [Example 42, (5S,8S)-3-(2-fluorophenyl)-9,9-dimethyl-8-[(3-methyl-yl)methyl]-5,6,7,8-tetrahydro-5,8-methanocinnoline]
67	Cc1noc([C@@]23CC[C@@H](c4cc(-c5c(F)cccc5F)nnc42)C3(C)C)n1 [Example 64, (5R,8R)-3-(2,6-difluorophenyl)-9,9-dimethyl-8-(3-methyl-1,2,4-oxadiazol-5-yl)-5,6,7,8-tetrahydro-5,8-methanocinnoline]
856	CC1(C)[C@H]2CC[C@]1(CN1CCCS1(=O)=O)c1nnc(-c3c(F)cccc3F)cc12 [Example 284, 2-(((5R,8S)-3-(2,6-difluorophenyl)-9,9-dimethyl-5,6,7,8-tetrahydro-5,8-methanocinnolin-8-yl)methyl)isothiazolidine 1,1-dioxide]
